{"source": "patent US9023789B2", "about": "“Amylin analogs and pharmaceutical compositions thereof” (Novo Nordisk A/S, priority 2012, dated 2015)", "target": "T1, human amylin 3(a) receptor (human calcitonin receptor + RAMP-3) in BHK570 cells (Homo sapiens, UniProt O60896+P30988)", "T1 construct": "expressed in transfected cells", "T1 sequence (O60896 24-148)": "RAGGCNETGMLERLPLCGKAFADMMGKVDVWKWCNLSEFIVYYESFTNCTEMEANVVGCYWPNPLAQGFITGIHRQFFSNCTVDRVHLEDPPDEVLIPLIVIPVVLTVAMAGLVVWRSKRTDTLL", "T1 sequence (P30988 25-474)": "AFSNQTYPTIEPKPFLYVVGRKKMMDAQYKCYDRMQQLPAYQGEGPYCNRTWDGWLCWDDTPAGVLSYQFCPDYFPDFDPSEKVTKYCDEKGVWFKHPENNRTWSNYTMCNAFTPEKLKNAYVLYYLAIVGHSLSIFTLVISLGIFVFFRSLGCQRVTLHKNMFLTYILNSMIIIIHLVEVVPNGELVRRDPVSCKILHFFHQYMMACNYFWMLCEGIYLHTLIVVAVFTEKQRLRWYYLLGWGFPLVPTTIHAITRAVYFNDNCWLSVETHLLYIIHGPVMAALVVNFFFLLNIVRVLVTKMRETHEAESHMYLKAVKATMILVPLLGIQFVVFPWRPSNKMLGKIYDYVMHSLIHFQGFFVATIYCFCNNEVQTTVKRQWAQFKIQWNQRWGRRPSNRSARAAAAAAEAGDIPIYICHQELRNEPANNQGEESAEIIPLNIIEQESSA", "experiment": "ASSAY (II)a functional assay, human amylin receptor (CRE luciferase)", "type": "cell-based", "in_short": "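Functional agonism was measured by CRE-luciferase reporter luminescence in BHK cells bearing calcitonin receptor, or calcitonin receptor plus RAMP-3 as the amylin 3(a) receptor. Stimulation lasted 3 hours at 37° C.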", "key": {"[1]": {"settings": "hCTR funct. EC50 / hAmylin-R funct. EC50"}, "[2]": {"settings": "hCTR funct. EC50 divided by hAmylin-R funct. EC50"}, "[3]": {"settings": "hCTR funct. EC50 over hAmylin-R funct. EC50"}, "[4]": {"settings": "human functional selectivity: hCTR funct. EC50 / hAmylin-R funct. EC50"}}, "note": "Numbered stars: 1 amine (or outer) side, 2 acyl side, 3 side chain; on linkers, the order of the positions; unused ones are H or OH. Bridge positions count the residues as written; N and C are the ends. Side chains are listed from the residue outwards. Peptide text beside a SMILES is read from it. * marks the point of attachment. C20 diacid = O=C(O)CCCCCCCCCCCCCCCCCCC(=O)*; γGlu = O=C(O)[C@H](CCC(=O)[*:2])N[*:1]; AEEA = NCCOCCOCC(=O)O"}
{"smiles": "CC[C@H](C)[C@H](NC(=O)[C@H](C)NC(=O)CNC(=O)[C@H](Cc1ccccc1)NC(=O)[C@H](CC(N)=O)NC(=O)[C@@H]1CCCN1C(=O)[C@H](CO)NC(=O)[C@H](CO)NC(=O)[C@H](Cc1c[nH]cn1)NC(=O)[C@H](CCCNC(=N)N)NC(=O)[C@H](CC(C)C)NC(=O)[C@H](Cc1ccccc1)NC(=O)[C@H](CCC(=O)O)NC(=O)[C@H](C)NC(=O)[C@H](CC(C)C)NC(=O)[C@H](CCCNC(=N)N)NC(=O)[C@H](CCC(N)=O)NC(=O)[C@@H](NC(=O)[C@H](C)NC(=O)[C@@H]1CSSC[C@H](NC(=O)[C@H](CCCCN)NC(=O)CC[C@H](NC(=O)CCCCCCCCCCCCCCCCCCC(=O)O)C(=O)O)C(=O)N[C@@H](CC(N)=O)C(=O)N[C@@H]([C@@H](C)O)C(=O)N[C@@H](C)C(=O)N[C@@H]([C@@H](C)O)C(=O)N1)[C@@H](C)O)C(=O)N1CCC[C@H]1C(=O)N[C@@H](CO)C(=O)N[C@@H](CO)C(=O)N[C@H](C(=O)N[C@@H](CC(N)=O)C(=O)N[C@H](C(=O)NCC(=O)N[C@@H](CO)C(=O)N[C@@H](CCC(=O)O)C(=O)N[C@H](C(=O)N[C@@H](Cc1ccc(O)cc1)C(N)=O)[C@@H](C)O)C(C)C)[C@@H](C)O", "note": "[Example 22] ({C20 diacid-γGlu}-KCNTATCATQRLAEFLRHSSPNFGAIPSSTNVGSETY-NH2; disulfide 2-7)", "values": [{"measurement": "Ratio hCT/hAmylin funct.", "setting": "[1]", "value": 3.8}, {"measurement": "Ratio hCT/hAmylin funct.", "setting": "[2]", "value": 3.8}, {"measurement": "Ratio hCT/hAmylin funct.", "setting": "[3]", "value": 3.8}, {"measurement": "Ratio hCT/hAmylin funct.", "setting": "[4]", "value": 3.8}]}
{"smiles": "CC[C@H](C)[C@H](NC(=O)[C@H](C)NC(=O)CNC(=O)[C@H](Cc1ccccc1)NC(=O)[C@H](CC(N)=O)NC(=O)[C@@H]1CCCN1C(=O)[C@H](CO)NC(=O)[C@H](CO)NC(=O)[C@H](Cc1c[nH]cn1)NC(=O)[C@H](CCCNC(=N)N)NC(=O)[C@H](CC(C)C)NC(=O)[C@H](Cc1ccccc1)NC(=O)[C@H](CCC(=O)O)NC(=O)[C@H](C)NC(=O)[C@H](CC(C)C)NC(=O)[C@H](CCCNC(=N)N)NC(=O)[C@H](CCC(N)=O)NC(=O)[C@@H](NC(=O)[C@H](C)NC(=O)[C@@H]1CSSC[C@H](NC(=O)[C@@H](N)CCCCNC(=O)CC[C@H](NC(=O)CC[C@H](NC(=O)CCCCCCCCCCCCCCCCCCC(=O)O)C(=O)O)C(=O)O)C(=O)N[C@@H](CC(N)=O)C(=O)N[C@@H]([C@@H](C)O)C(=O)N[C@@H](C)C(=O)N[C@@H]([C@@H](C)O)C(=O)N1)[C@@H](C)O)C(=O)N1CCC[C@H]1C(=O)N[C@@H](CO)C(=O)N[C@@H](CO)C(=O)N[C@H](C(=O)N[C@@H](CC(N)=O)C(=O)N[C@H](C(=O)NCC(=O)N[C@@H](CCCNC(=N)N)C(=O)N[C@@H](CC(N)=O)C(=O)N[C@H](C(=O)N[C@@H](Cc1ccc(O)cc1)C(N)=O)[C@@H](C)O)C(C)C)[C@@H](C)O", "note": "[Example 88] (H-K([γGlu-γGlu-C20 diacid])CNTATCATQRLAEFLRHSSPNFGAIPSSTNVGRNTY-NH2; disulfide 2-7)", "values": [{"measurement": "Ratio hCT/hAmylin funct.", "setting": "[2]", "value": 8.5}, {"measurement": "Ratio hCT/hAmylin funct.", "setting": "[3]", "value": 8.5}, {"measurement": "Ratio hCT/hAmylin funct.", "setting": "[4]", "value": 8.5}]}
{"smiles": "CC[C@H](C)[C@H](NC(=O)[C@H](C)NC(=O)CNC(=O)[C@H](Cc1ccccc1)NC(=O)[C@H](CC(N)=O)NC(=O)[C@@H]1CCCN1C(=O)[C@H](CO)NC(=O)[C@H](CO)NC(=O)[C@H](Cc1c[nH]cn1)NC(=O)[C@H](CCCNC(=N)N)NC(=O)[C@H](CC(C)C)NC(=O)[C@H](Cc1ccccc1)NC(=O)[C@H](CCC(=O)O)NC(=O)[C@H](C)NC(=O)[C@H](CC(C)C)NC(=O)[C@H](CCCNC(=N)N)NC(=O)[C@H](CCC(N)=O)NC(=O)[C@@H](NC(=O)[C@H](C)NC(=O)[C@@H]1CSSC[C@H](NC(=O)[C@@H](N)CCCCNC(=O)CC[C@H](NC(=O)CC[C@H](NC(=O)CCCCCCCCCCCCCCCCCCC(=O)O)C(=O)O)C(=O)O)C(=O)N[C@@H](CC(N)=O)C(=O)N[C@@H]([C@@H](C)O)C(=O)N[C@@H](C)C(=O)N[C@@H]([C@@H](C)O)C(=O)N1)[C@@H](C)O)C(=O)N1CCC[C@H]1C(=O)N[C@@H](CO)C(=O)N[C@@H](CO)C(=O)N[C@H](C(=O)N[C@@H](CC(N)=O)C(=O)N[C@H](C(=O)NCC(=O)N1CCC[C@H]1C(=O)N[C@@H](CCC(=O)O)C(=O)N[C@H](C(=O)N1CCC[C@H]1C(N)=O)[C@@H](C)O)C(C)C)[C@@H](C)O", "note": "[Example 125] (H-K([γGlu-γGlu-C20 diacid])CNTATCATQRLAEFLRHSSPNFGAIPSSTNVGPETP-NH2; disulfide 2-7 (inferred); N-terminus assumed)", "values": [{"measurement": "Ratio hCT/hAmylin funct.", "setting": "[1]", "value": 0.8}, {"measurement": "Ratio hCT/hAmylin funct.", "setting": "[2]", "value": 0.8}, {"measurement": "Ratio hCT/hAmylin funct.", "setting": "[3]", "value": 0.8}, {"measurement": "Ratio hCT/hAmylin funct.", "setting": "[4]", "value": 0.8}]}
{"smiles": "CC[C@H](C)[C@H](NC(=O)[C@H](C)NC(=O)CNC(=O)[C@H](Cc1ccccc1)NC(=O)[C@H](CC(N)=O)NC(=O)[C@@H]1CCCN1C(=O)[C@H](CO)NC(=O)[C@H](CO)NC(=O)[C@H](Cc1c[nH]cn1)NC(=O)[C@H](CCCNC(=N)N)NC(=O)[C@H](CC(C)C)NC(=O)[C@H](Cc1ccccc1)NC(=O)[C@H](CC(N)=O)NC(=O)[C@H](C)NC(=O)[C@H](CC(C)C)NC(=O)[C@H](CCCNC(=N)N)NC(=O)[C@H](CCC(N)=O)NC(=O)[C@@H](NC(=O)[C@H](C)NC(=O)[C@@H]1CSSC[C@H](NC(=O)[C@@H](N)CCCCNC(=O)CC[C@H](NC(=O)CCCCCCCCCCCCCCCCCCC(=O)O)C(=O)O)C(=O)N[C@@H](CC(N)=O)C(=O)N[C@@H]([C@@H](C)O)C(=O)N[C@@H](C)C(=O)N[C@@H]([C@@H](C)O)C(=O)N1)[C@@H](C)O)C(=O)N1CCC[C@H]1C(=O)N[C@@H](CO)C(=O)N[C@@H](CO)C(=O)N[C@H](C(=O)N[C@@H](CC(N)=O)C(=O)N[C@H](C(=O)NCC(=O)N[C@@H](CO)C(=O)N[C@@H](CCC(=O)O)C(=O)N[C@H](C(=O)N[C@@H](Cc1ccc(O)cc1)C(N)=O)[C@@H](C)O)C(C)C)[C@@H](C)O", "note": "[Example 27]", "values": [{"measurement": "Ratio hCT/hAmylin funct.", "setting": "[2]", "value": 22.6}, {"measurement": "Ratio hCT/hAmylin funct.", "setting": "[3]", "value": 22.6}, {"measurement": "Ratio hCT/hAmylin funct.", "setting": "[4]", "value": 22.6}]}
{"smiles": "CC[C@H](C)[C@H](NC(=O)[C@H](C)NC(=O)CNC(=O)[C@H](Cc1ccccc1)NC(=O)[C@H](CC(N)=O)NC(=O)[C@@H]1CCCN1C(=O)[C@H](CO)NC(=O)[C@H](CO)NC(=O)[C@H](Cc1c[nH]cn1)NC(=O)[C@H](CCCNC(=N)N)NC(=O)[C@H](CC(C)C)NC(=O)[C@H](Cc1ccccc1)NC(=O)[C@H](Cc1c[nH]cn1)NC(=O)[C@H](C)NC(=O)[C@H](CC(C)C)NC(=O)[C@H](CCCNC(=N)N)NC(=O)[C@H](CCC(N)=O)NC(=O)[C@@H](NC(=O)[C@H](C)NC(=O)[C@@H]1CSSC[C@H](NC(=O)[C@@H](N)CCCCNC(=O)COCCOCCNC(=O)CC[C@H](NC(=O)CCCCCCCCCCCCCCCCCCC(=O)O)C(=O)O)C(=O)N[C@@H](CC(N)=O)C(=O)N[C@@H]([C@@H](C)O)C(=O)N[C@@H](C)C(=O)N[C@@H]([C@@H](C)O)C(=O)N1)[C@@H](C)O)C(=O)N1CCC[C@H]1C(=O)N[C@@H](CO)C(=O)N[C@@H](CO)C(=O)N[C@H](C(=O)N1CCC[C@H]1C(=O)N[C@H](C(=O)NCC(=O)N[C@@H](CO)C(=O)N[C@@H](CC(N)=O)C(=O)N[C@H](C(=O)N[C@@H](Cc1ccc(O)cc1)C(N)=O)[C@@H](C)O)C(C)C)[C@@H](C)O", "note": "[Example 61] (H-K([AEEA-γGlu-C20 diacid])CNTATCATQRLAHFLRHSSPNFGAIPSSTPVGSNTY-NH2; disulfide 2-7 (inferred))", "values": [{"measurement": "Ratio hCT/hAmylin funct.", "setting": "[2]", "value": 10.9}, {"measurement": "Ratio hCT/hAmylin funct.", "setting": "[3]", "value": 10.9}, {"measurement": "Ratio hCT/hAmylin funct.", "setting": "[4]", "value": 10.9}]}
